Reference: patent US11596626B2, “Compound for use against pathogenic Neisseria and Haemophilus species and Moraxella catarrhalis” (priority 2017, dated 2023)
“Also recorded” adds a separate entry of the source.

Tests used:
Lactobacillus brevis = test: Growth curves in liquid culture (optical density) vs DMSO control; type: cell-based; conditions: 5-50 μM, FIG. 4
Experimental: Growth experiments with NQNO were conducted against Neisseria gonorrhoeae strain MS11 (Edwards, M., et al., Antigenic analysis of gonococcal pili using monoclonal antibodies, J Exp Med, 1984. 160(6): p. 1782-91) and a multidrug-resistant N. gonorrhoeae isolate from Slovenia (Unemo M, Golparian O, Potočnik M, Jeverica S. Treatment failure of pharyngeal gonorrhoea with internationally recommended first-line ceftriaxone verified in Slovenia, September 2011. Euro Surveill. 2012; 17(25):pii=20200), Neisseria macacae, and Lactobacillus brevis. The bacteria were inoculated in GC (Difco™ GC medium Ref. 228950, BD Becton Dickinson) and PPM broth (15 g/L Proteon Pepton, 1 g/L soluble starch, 5 g/L NaCl, 4 g/L KH2PO4, 1 g/L K2HPO4, pH 7.5) (Neisseriae) or TSB (BBL™ Trypticase Soy Broth Ref 211768, BD Becton Dickinson) (Lactobacillus) supplemented with solvent (DMSO) or the indicated concentrations of NQNO (5-50 04) and their growth at 37° C. was monitored over the course of 10 h by optical density readings in 30 minute intervals. […]
Before every experiment, bacteria were pre-cultured in 5 ml liquid medium for at least 2 hours then harvested and resuspended in PBS (phosphate buffered saline). Optical density (OD) was determined and a volume equal to an OD of 0.2 was inoculated into 5 ml of the respective medium. […] Optical density was determined every 0.5 h.

[1] = Tissue integrity and tolerability after topical vaginal application in CEAtg mice; type: in vivo
Experimental: (§1) 6 to 8 week old, female CEA-transgenic mice were infected with N. gonorrhoeae. 2 h after infection, the animals were treated with 20 μl buffer containing solvent (DMSO) or 50 μM NQNO (Compound represented by the Formula (5)). 20 h later, the genital tract was excised and cryosections were stained for cell nuclei (Hoechst; blue), human CEA (red) and N. gonorrhoeae (gonococci, green) (FIG. 8).
(§2) Additional cryosections from the same samples were stained for cell nuclei (Hoechst; blue), human collagen (red) and N. gonorrhoeae (gonococci, green) (FIG. 9).
6 to 8 week old, female CEA-transgenic mice were treated with 20 μl buffer containing solvent (DMSO) or 50 μM NQNO (Compound represented by the Formula (5)). 20 h later, the genital tract was excised, fixed, paraffin embedded and tissue sections were stained with HE (Haematoxilin/Eosin) solution.
In particular, in the above experiment the genital tract of infected and NQNO/DMSO or DMSO treated animals was excised and placed in 4% neutral buffer containing formalin overnight followed by 0.4% PFA (paraformaldehyde) treatment. The tissue was then dehydrated and embedded in paraffin. 10 μm serial sections were cut, deparaffinized and rehydrated in a graded series (100% to 75%) of ethanol. Sections were serially stained with Hematoxilin solution according to Mayer (Sigma) and 0.5% Eosin G solution (Roth).

[2] = Stability in DMEM with 10% fetal calf serum by LC-MS; type: physicochemical; conditions: 100 μM in DMEM with 10% fetal calf serum, 24° C. and 37° C.
Experimental: Stability of 100 μM NQNO in Dulbecco's modified Eagle's medium (DMEM) medium supplemented with 10% fetal calf serum at 24° C. and 37° C. was evaluated over a period of 4 days. Samples were taken at the beginning (day 0) and every second day. Samples were analyzed by LC-MS and the integrals of the detected NQNO (by using extracted ion chromatograms) compared to the integral of the control (100 μM NQNO in H2O) which was set to 100%.

N. gonorrhoeae = test: Immunofluorescence staining of upper vaginal tract sections of infected CEAtg mice; type: in vivo, Neisseria gonorrhoeae; conditions: 20 μl of 50 μM 2 h after infection, tissue 20 h later, FIGS. 8 and 9
Experimental: as §1, §2
In particular, in the above experiments the genital tract of infected mice was excised and immediately fixed with 4% paraformaldehyde for at least 24 h. The fixed tissue was sequentially transferred to 10% sucrose, 0.05% cacodylic acid for 1 h at 4° C., to 20% sucrose for 1 h at 4° C., and then into 30% sucrose at 4° C. overnight. Organs were mounted in the embedding medium (Cryo-M-Bed; Bright Instrument, Huntingdon, UK) and frozen at −20° C. 10 μm thick sections were cut at −20° C. using a cryostat (Vacutom HM500, Microm, Germany). Sections were stained with a mouse monoclonal antibody against collagen type IV (clone M3F7; dilution 1:200) together with a polyclonal rabbit antibody against N. gonorrhoeae (dilution 1:100). […]

CCCCCCCCCc1cc(=O)c2ccccc2n1O [NQNO, 1-Hydroxy-2-nonylquinolin-4(1H)-one]
Effect on growth (Lactobacillus brevis): did not compromise the growth | Histology of vaginal tract epithelium (HE staining) ([1]; CEAtg mice, 20 μl of 50 μM, 20 h, FIG. 10): intact striated epithelium | Integrity of mucosal surface and subepithelial tissue (CEA and collagen staining) ([1]; infected CEAtg mice, 20 μl of 50 μM topical, 20 h, FIGS. 8 and 9): continuous and unaltered mucosal surface; also recorded: does not damage the mucosal surface | Signs of discomfort in treated mice ([1]; single topical application): did not show any signs of discomfort | Time stable in serum-containing cell culture medium [2]: at least 4 days | Gonococci on the mucosal surface (fluorescence microscopy) (N. gonorrhoeae): hardly any gonococci could be detected; also recorded: no gonococci could be detected
